Here are results for 21 compounds from patent publication US8017767B2, “Sucralose composition” (Tate & Lyle Public Limited Company, priority 2000, dated 2011).

Structures are written as SMILES.

A short description of this data set: Accelerated stability test (50° C.) with pH stability test of sucralose sample solution. To be noted: for Days to pH Failure / Ph Stability: 50° C.; for Days to pH Failure: WHIRLPAK polyethylene bags, failure = pH drop ≧1.0; for Initial pH: sample solution (5 g in 50 ml pH-adjusted water) at time zero; for Initial pH difference: sample solution vs pH-adjusted water at time zero. Type of data set: physicochemical. An excerpt: Label seven 6 oz. and seven 18 oz. WHIRLPAK® polyethylene bags with indelible marker for each batch being tested for stability. Accurately weigh 25 g±0.01 g of sucralose into each 6 oz. WHIRLPAK® polyethylene bag. Heat or impulse seal the 6 oz. bag to ensure air tightness. Cut off any excess polyethylene at the top of the bag above the seal. Place the 6 oz. sealed bag into the 18 oz. bag and heat or impulse seal the 18 oz. bag to ensure air tightness. Roll down the top of the 18 oz. bag above the seal and bend the metal ties to form hooks.
Place the prepared bags into an oven stabilized at 50° C.±0.5° C. by hanging them from racks by the bag hooks. The bags must be freely suspended and not touch anything. Record the time samples are placed into the oven.
The pH stability test is conducted on the sucralose at time zero (the day the samples are placed in the oven, before the sucralose is exposed to elevated temperature) and every 24 hours until the batch being tested fails the test.
Place approximately 100 ml of deionized water into a 150 ml beaker. Using 0.1 N hydrochloric acid and/or 0.1 N sodium hydroxide, adjust the pH of the water to be between 5.8 and 6.0. Record the pH reading.
Accurately weigh 5 g±0.001 g of the product to be tested and transfer it to a 50 ml volumetric flask. Dissolve and bring to the mark by adding pH-adjusted water. If the sample to be tested is one that has been exposed to heat, remove one bag of the batch being tested from the oven and allow it to cool to room temperature before opening and sampling.
Pour the solution into a 100 ml beaker containing a stir bar, and slowly stir the solution on a magnetic stirrer. Immerse the pH electrode in the sample, allow the pH reading to stabilize, and record the pH reading of the sample. If no pH drop is observed after all the bags have been tested, the experiment is void and the test must repeated with a larger number of bags.
Record (to one decimal place) the pH of both the pH-adjusted water used and the sample sucralose solution. Subtract the pH of the […]. Report the result as (−) for a pH drop and (+) for a pH gain, e.g.:
The sample fails the test if there is a pH drop of 1.0 pH unit or more. The pH stability of the batch is defined as the number of days until the pH drop between the sample solution and that of the pH adjusted water is ≧1.0.
Samples of sucralose were tested for stability using the above procedures, but using bags of different moisture permeability. All other experimental details were the same. The TYVEK®/polyethylene bags are permeable; the WHIRLPAK® bags are less permeable. The A8080 bag consists of aluminum foil laminated to low-density polyethylene, which makes it very impermeable to moisture.

Where [1] appears, read: Example 1, sodium acetate in mother liquor varied.
[2] abbreviates: (−) pH drop, (+) pH gain, Example 1.
The mark [3] stands for this setting: Example 2, pH at crystallizer varied.

`OC[C@H]1O[C@H](O[C@]2(CCl)O[C@H](CCl)[C@@H](O)[C@@H]2O)[C@H](O)[C@@H](O)[C@H]1Cl` [Sample 12, 4,1′,6′-trichloro-4,1′,6′-trideoxy-galactosucrose]: under setting [1], the “Days to pH Failure” value amounted to 6 Days and the “Initial pH” value came to 5.85. The “Initial pH difference” value under setting [2] is reported as −0.10.
With `OC[C@H]1O[C@H](O[C@]2(CCl)O[C@H](CCl)[C@@H](O)[C@@H]2O)[C@H](O)[C@@H](O)[C@H]1Cl` [Sample 13, 4,1′,6′-trichloro-4,1′,6′-trideoxy-galactosucrose], under setting [1], the “Days to pH Failure” value was 5 Days and the “Initial pH” value was 5.85. For the same compound, under setting [2], the “Initial pH difference” value is −0.10.
On to `OC[C@H]1O[C@H](O[C@]2(CCl)O[C@H](CCl)[C@@H](O)[C@@H]2O)[C@H](O)[C@@H](O)[C@H]1Cl` [Sample 14, 4,1′,6′-trichloro-4,1′,6′-trideoxy-galactosucrose], for which, under setting [1], the “Days to pH Failure” value stood at 6 Days and the “Initial pH” value is reported as 5.95. For the same compound, the “Initial pH difference” value under setting [2] is on record as “+0.02”.
In the case of `OC[C@H]1O[C@H](O[C@]2(CCl)O[C@H](CCl)[C@@H](O)[C@@H]2O)[C@H](O)[C@@H](O)[C@H]1Cl` [Sample 15, 4,1′,6′-trichloro-4,1′,6′-trideoxy-galactosucrose], under setting [1], the “Days to pH Failure” value is listed as 5 Days and the “Initial pH” value turned out to be 6.06. The “Initial pH difference” value under setting [2] was “+0.13”.
Take `OC[C@H]1O[C@H](O[C@]2(CCl)O[C@H](CCl)[C@@H](O)[C@@H]2O)[C@H](O)[C@@H](O)[C@H]1Cl` [Sample 16, 4,1′,6′-trichloro-4,1′,6′-trideoxy-galactosucrose]: under setting [1], the “Days to pH Failure” value is recorded as 6 Days and the “Initial pH” value worked out at 6.20. Besides, the “Initial pH difference” value under setting [2] is “+0.27”.
For the compound `OC[C@H]1O[C@H](O[C@]2(CCl)O[C@H](CCl)[C@@H](O)[C@@H]2O)[C@H](O)[C@@H](O)[C@H]1Cl` [Sample 17, 4,1′,6′-trichloro-4,1′,6′-trideoxy-galactosucrose], under setting [1], the “Days to pH Failure” value turned out to be 6 Days and the “Initial pH” value came out at 6.03. The “Initial pH difference” value under setting [2] is recorded as “+0.10”.
Take `OC[C@H]1O[C@H](O[C@]2(CCl)O[C@H](CCl)[C@@H](O)[C@@H]2O)[C@H](O)[C@@H](O)[C@H]1Cl` [Sample 18, 4,1′,6′-trichloro-4,1′,6′-trideoxy-galactosucrose]: under setting [1], the “Days to pH Failure” value is reported as 6 Days and the “Initial pH” value is 6.00. In addition, the “Initial pH difference” value under setting [2] is given as “+0.07”.
With `OC[C@H]1O[C@H](O[C@]2(CCl)O[C@H](CCl)[C@@H](O)[C@@H]2O)[C@H](O)[C@@H](O)[C@H]1Cl` [Sample 19, 4,1′,6′-trichloro-4,1′,6′-trideoxy-galactosucrose], under setting [1], the “Days to pH Failure” value came to 6 Days and the “Initial pH” value turned out to be 6.06. The “Initial pH difference” value under setting [2] is recorded as “+0.13”.
Taken in the same sequence, the figures for `OC[C@H]1O[C@H](O[C@]2(CCl)O[C@H](CCl)[C@@H](O)[C@@H]2O)[C@H](O)[C@@H](O)[C@H]1Cl` [Sample 20, 4,1′,6′-trichloro-4,1′,6′-trideoxy-galactosucrose] were 6 Days, 6.09 and “+0.08”.
The corresponding values for `OC[C@H]1O[C@H](O[C@]2(CCl)O[C@H](CCl)[C@@H](O)[C@@H]2O)[C@H](O)[C@@H](O)[C@H]1Cl` [Sample 21, 4,1′,6′-trichloro-4,1′,6′-trideoxy-galactosucrose] are 6 Days, 6.05 and “+0.10”.
The corresponding values for `OC[C@H]1O[C@H](O[C@]2(CCl)O[C@H](CCl)[C@@H](O)[C@@H]2O)[C@H](O)[C@@H](O)[C@H]1Cl` [Sample 22, 4,1′,6′-trichloro-4,1′,6′-trideoxy-galactosucrose] are 6 Days, 6.08 and “+0.09”.
In the case of `OC[C@H]1O[C@H](O[C@]2(CCl)O[C@H](CCl)[C@@H](O)[C@@H]2O)[C@H](O)[C@@H](O)[C@H]1Cl` [Sample 23, 4,1′,6′-trichloro-4,1′,6′-trideoxy-galactosucrose], under setting [1], the “Days to pH Failure” value amounted to 5 Days and the “Initial pH” value was found to be 6.12. For the same compound, the “Initial pH difference” value under setting [2] is “+0.13”.
Turning to `OC[C@H]1O[C@H](O[C@]2(CCl)O[C@H](CCl)[C@@H](O)[C@@H]2O)[C@H](O)[C@@H](O)[C@H]1Cl` [Sample 24, 4,1′,6′-trichloro-4,1′,6′-trideoxy-galactosucrose], the “Days to pH Failure” value under setting [1] is 5 Days. The “Ph Stability” value was found to be 8 days (package A8080 (aluminum foil laminated to low-density polyethylene), impermeable); 4 days (package FF 91 TYVEK/Polyethylene, very permeable); 5 days (package WHIRLPAK Polyethylene, moderately permeable). The “Initial pH” value under setting [1] turned out to be 6.02. Further, the “Initial pH difference” value under setting [2] is given as “+0.03”.
As for `OC[C@H]1O[C@H](O[C@]2(CCl)O[C@H](CCl)[C@@H](O)[C@@H]2O)[C@H](O)[C@@H](O)[C@H]1Cl` [Sample 25, 4,1′,6′-trichloro-4,1′,6′-trideoxy-galactosucrose], under setting [1], the “Days to pH Failure” value amounted to 6 Days and the “Initial pH” value is recorded as 6.03. Moreover, the “Initial pH difference” value under setting [2] was “+0.05”.
For the compound `OC[C@H]1O[C@H](O[C@]2(CCl)O[C@H](CCl)[C@@H](O)[C@@H]2O)[C@H](O)[C@@H](O)[C@H]1Cl` [Sample 26, 4,1′,6′-trichloro-4,1′,6′-trideoxy-galactosucrose], under setting [1], the “Days to pH Failure” value is on record as 6 Days and the “Initial pH” value turned out to be 6.06. For the same compound, the “Initial pH difference” value under setting [2] is recorded as “+0.10”.
For `OC[C@H]1O[C@H](O[C@]2(CCl)O[C@H](CCl)[C@@H](O)[C@@H]2O)[C@H](O)[C@@H](O)[C@H]1Cl` [Sample 27, 4,1′,6′-trichloro-4,1′,6′-trideoxy-galactosucrose], under setting [1], the “Days to pH Failure” value came to 6 Days and the “Initial pH” value turned out to be 5.99. Also, under setting [2], the “Initial pH difference” value is recorded as “+0.03”.
Taken in the same sequence, the figures for `OC[C@H]1O[C@H](O[C@]2(CCl)O[C@H](CCl)[C@@H](O)[C@@H]2O)[C@H](O)[C@@H](O)[C@H]1Cl` [Sample 28, 4,1′,6′-trichloro-4,1′,6′-trideoxy-galactosucrose] were 6 Days, 6.00 and “+0.02”.
Regarding `OC[C@H]1O[C@H](O[C@]2(CCl)O[C@H](CCl)[C@@H](O)[C@@H]2O)[C@H](O)[C@@H](O)[C@H]1Cl` [Sample 29, 4,1′,6′-trichloro-4,1′,6′-trideoxy-galactosucrose], under setting [1], the “Days to pH Failure” value is 6 Days and the “Initial pH” value is 6.09. The “Initial pH difference” value under setting [2] is reported as “+0.12”.
Taken in the same sequence, the figures for `OC[C@H]1O[C@H](O[C@]2(CCl)O[C@H](CCl)[C@@H](O)[C@@H]2O)[C@H](O)[C@@H](O)[C@H]1Cl` [Sample 30, 4,1′,6′-trichloro-4,1′,6′-trideoxy-galactosucrose] were 5 Days, 5.95 and −0.02.
In the case of `OC[C@H]1O[C@H](O[C@]2(CCl)O[C@H](CCl)[C@@H](O)[C@@H]2O)[C@H](O)[C@@H](O)[C@H]1Cl` [Sample 31, 4,1′,6′-trichloro-4,1′,6′-trideoxy-galactosucrose], under setting [1], the “Days to pH Failure” value came out at 5 Days and the “Initial pH” value was determined as 6.03. In addition, the “Initial pH difference” value under setting [2] is listed as “+0.06”.
For `OC[C@H]1O[C@H](O[C@]2(CCl)O[C@H](CCl)[C@@H](O)[C@@H]2O)[C@H](O)[C@@H](O)[C@H]1Cl` [Sample 32, 4,1′,6′-trichloro-4,1′,6′-trideoxy-galactosucrose], under setting [3], the “Days to pH Failure” value is 3 Days and the “Initial pH difference” value was −0.90. Where the note is “crystallized with no pH control, intermediate moisture 3 to 5% vs final 0.05, 0.11, 0.21%”, the “stability at intermediate moisture contents compared with final moisture levels” value is “less stable at intermediate moisture contents (3 to 5%) than they were at their final moisture levels”.
